Data reported in patent publication US6638957B1, “Use of compounds with a nitrogen-oxygen heterocycle” (Jomaa Pharmaka GmbH, priority 1999, dated 2003).
In brackets after ≈: the same amount, converted by molar mass. Like-named read-outs stand apart in the source and are kept apart here.

How the values were obtained:
[1] = target: T1, DOXP reductoisomerase of Escherichia coli (UniProt P56139); test: inhibition of recombinant DOXP reductoisomerase (NADPH oxidation); type: biochemical; settings: 1 mM DOXP, 0,3 mM NADPH, pH 7,5; read-out: IC50(nM) of DOXP reductoisomerase from Helicobacter pilori
T1 sequence (P56139 1-368): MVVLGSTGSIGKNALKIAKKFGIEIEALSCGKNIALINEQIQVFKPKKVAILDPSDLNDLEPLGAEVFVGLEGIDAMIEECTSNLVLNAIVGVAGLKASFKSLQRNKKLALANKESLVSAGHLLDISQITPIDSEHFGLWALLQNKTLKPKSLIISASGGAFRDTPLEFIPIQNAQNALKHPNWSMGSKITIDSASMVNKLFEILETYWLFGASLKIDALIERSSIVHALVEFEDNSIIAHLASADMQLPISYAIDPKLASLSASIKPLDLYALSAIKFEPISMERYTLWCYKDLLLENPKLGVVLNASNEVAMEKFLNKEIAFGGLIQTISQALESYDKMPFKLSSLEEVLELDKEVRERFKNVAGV

[2] = tested on: Plasmodium falciparum; test: antimalaria activity on in vitro cultures, [3H]-hypoxanthine incorporation; type: cell-based; settings: 72 h, inhibition of [3H]-hypoxanthine incorporation, 48 + 24 hours, read-out: IC50(nM) of malaria culture (Plasmodium falciparum)
Procedure: The antimalaria activity of the compounds listed on page 9 was determined on in vitro cultures of the malaria pathogen Plasmodium falciparum. The depressions of a 96-well microtitre plate were charged with in each case 200 μl of an asynchroneous Plasmodium falciparum culture at a parasitaemia of 0,4% and haematokrit of 2%. A serial dilution series of the compounds in triple steps between concentrations of 100 to 0,14 μmol 1^−1 was then prepared. The plates were incubated at 37° C., 3% CO2 and 5% O2 over a period of 48 hours. 30 μl medium supplemented with 27 μCi ml^−1 [^3H]-hypoxanthine were then added to each well. After incubation for 24 hours the parasites were harvested by filtration on a glass fibre filter and the radioactivity which had been incorporated was measured. The inhibition of the growth of parasites was measured as the percentage inhibition of the incorporation of tritium. Inhibition of the growth of the parasites has been determined as percentage inhibition of incorporation of tritium based on a comparison without the substance. The half-maximum inhibitory concentration (IC50) of the substance was determined by extrapolation of the values.

[3] = tested on: Pseudomonas aeruginosa; test: antibacterial activity, minimum inhibition concentration in liquid culture; type: cell-based; settings: read-out: MIC(nM) of bacteria culture (Pseudomonas aeruginosa)
Procedure: A dilution series comprising the concentrations 500, 100, 50, 10 and 0 μmol 1^−1 of the individual compounds in LB medium is introduced into 5 culture microtubes in a volume of 0,5 ml. The tubes were inoculated with 10 μl of an overnight culture of E. coli K12 and shaken overnight at 37° C. The growth of the bacteria was assessed on the basis of the turbidity of the medium. The minimum concentration causing inhibition of bacterial growth was determined (minimum inhibition concentration MIC)
The antibacterial activity of P. aeruginosa was determined in the same manner.

[4] = tested on: Echinochloa; test: herbicidal activity, Hydro Vorauflauf; type: in vivo; settings: for pest or weed control at 1000 g/ha: 1000 Gramm/Hektar
Procedure: (§1) The determination of herbicidal activity is performed according to standard procedure. Again the compounds listed on page 9 are tested.

[5] = tested on: Lepidium; test: herbicidal activity, Hydro Vorauflauf; type: in vivo; settings: for pest or weed control at 1000 g/ha: 1000 Gramm/Hektar
Procedure: as §1

[6] = tested on: Reis; test: herbicidal activity, Hydro Vorauflauf; type: in vivo; settings: for pest or weed control at 1000 g/ha: 1000 Gramm/Hektar
Procedure: as §1

[7] = tested on: Solanum; test: herbicidal activity, Hydro Vorauflauf; type: in vivo; settings: for pest or weed control at 1000 g/ha: 1000 Gramm/Hektar
Procedure: as §1

[8] = tested on: Abutilon theophrasti; test: herbicidal activity, Erde Vorauflauf; type: in vivo; settings: for pest or weed control at 500 g/ha: 500 Gramm/Hektar
Procedure: as §1

[9] = tested on: Alopecurus myosuroides; test: herbicidal activity, Erde Vorauflauf; type: in vivo; settings: for pest or weed control at 500 g/ha: 500 Gramm/Hektar
Procedure: as §1

[10] = tested on: Amaranthus retroflexus; test: herbicidal activity, Erde Vorauflauf; type: in vivo; settings: for pest or weed control at 500 g/ha: 500 Gramm/Hektar
Procedure: as §1

[11] = tested on: Avena fatua; test: herbicidal activity, Erde Vorauflauf; type: in vivo; settings: for pest or weed control at 500 g/ha: 500 Gramm/Hektar
Procedure: as §1

[12] = tested on: Beta vulgaris; test: herbicidal activity, Erde Vorauflauf; type: in vivo; settings: for plant injury at 500 g/ha: 500 Gramm/Hektar
Procedure: as §1

[13] = tested on: Cyperus esculentus; test: herbicidal activity, Erde Vorauflauf; type: in vivo; settings: for pest or weed control at 500 g/ha: 500 Gramm/Hektar
Procedure: as §1

[14] = tested on: Galium aperine; test: herbicidal activity, Erde Vorauflauf; type: in vivo; settings: for pest or weed control at 500 g/ha: 500 Gramm/Hektar
Procedure: as §1

[15] = tested on: Setaria viridis; test: herbicidal activity, Erde Vorauflauf; type: in vivo; settings: for pest or weed control at 500 g/ha: 500 Gramm/Hektar
Procedure: as §1

[16] = tested on: Sinapis arvensis; test: herbicidal activity, Erde Vorauflauf; type: in vivo; settings: Mutarda arvensis; for pest or weed control at 500 g/ha: 500 Gramm/Hektar
Procedure: as §1

[17] = tested on: Xanthium strumarium; test: herbicidal activity, Erde Vorauflauf; type: in vivo; settings: for pest or weed control at 500 g/ha: 500 Gramm/Hektar
Procedure: as §1

[18] = tested on: Zea mays; test: herbicidal activity, Erde Vorauflauf; type: in vivo; settings: for plant injury at 500 g/ha: 500 Gramm/Hektar
Procedure: as §1

[19] = tested on: Abutilon theophrasti; test: herbicidal activity, Erde Nachauflauf; type: in vivo; settings: for pest or weed control at 500 g/ha: 500 Gramm/Hektar
Procedure: as §1

[20] = tested on: Alopecurus myosuroides; test: herbicidal activity, Erde Nachauflauf; type: in vivo; settings: for pest or weed control at 500 g/ha: 500 Gramm/Hektar
Procedure: as §1

[21] = tested on: Amaranthus retroflexus; test: herbicidal activity, Erde Nachauflauf; type: in vivo; settings: for pest or weed control at 500 g/ha: 500 Gramm/Hektar
Procedure: as §1

[22] = tested on: Avena fatua; test: herbicidal activity, Erde Nachauflauf; type: in vivo; settings: for pest or weed control at 500 g/ha: 500 Gramm/Hektar
Procedure: as §1

[23] = tested on: Beta vulgaris; test: herbicidal activity, Erde Nachauflauf; type: in vivo; settings: for plant injury at 500 g/ha: 500 Gramm/Hektar
Procedure: as §1

[24] = tested on: Cyperus esculentus; test: herbicidal activity, Erde Nachauflauf; type: in vivo; settings: for pest or weed control at 500 g/ha: 500 Gramm/Hektar
Procedure: as §1

[25] = tested on: Galium aperine; test: herbicidal activity, Erde Nachauflauf; type: in vivo; settings: for pest or weed control at 500 g/ha: 500 Gramm/Hektar
Procedure: as §1

[26] = tested on: Setaria viridis; test: herbicidal activity, Erde Nachauflauf; type: in vivo; settings: for pest or weed control at 500 g/ha: 500 Gramm/Hektar
Procedure: as §1

[27] = tested on: Sinapis arvensis; test: herbicidal activity, Erde Nachauflauf; type: in vivo; settings: Mutarda arvensis; for pest or weed control at 500 g/ha: 500 Gramm/Hektar
Procedure: as §1

[28] = tested on: Xanthium strumarium; test: herbicidal activity, Erde Nachauflauf; type: in vivo; settings: for pest or weed control at 500 g/ha: 500 Gramm/Hektar
Procedure: as §1

[29] = tested on: Zea mays; test: herbicidal activity, Erde Nachauflauf; type: in vivo; settings: for plant injury at 500 g/ha: 500 Gramm/Hektar
Procedure: as §1

CC1(C)CON(C(=O)CP(C)(=O)O)C1=O [Compound 1]
IC50 [1]: 22 nM | IC50 [2]: 800 nM | MIC ([3]; LB medium, overnight at 37° C., turbidity): 500 nM (≈ 0.118 µg/mL) | pest or weed control at 1000 g/ha [4]: 80% | pest or weed control at 1000 g/ha [5]: 40% | pest or weed control at 1000 g/ha [6]: 50% | pest or weed control at 1000 g/ha [7]: 0% | pest or weed control at 500 g/ha [8]: 0% | pest or weed control at 500 g/ha [9]: 50% | pest or weed control at 500 g/ha [10]: 0% | pest or weed control at 500 g/ha [11]: 0% | plant injury at 500 g/ha [12]: 30% | pest or weed control at 500 g/ha [13]: 0% | pest or weed control at 500 g/ha [14]: 0% | pest or weed control at 500 g/ha [15]: 0% | pest or weed control at 500 g/ha [16]: 40% | pest or weed control at 500 g/ha [17]: 0% | plant injury at 500 g/ha [18]: 0% | pest or weed control at 500 g/ha [19]: 40% | pest or weed control at 500 g/ha [20]: 50% | pest or weed control at 500 g/ha [21]: 0% | pest or weed control at 500 g/ha [22]: 50% | plant injury at 500 g/ha [23]: 70% | pest or weed control at 500 g/ha [24]: 0% | pest or weed control at 500 g/ha [25]: 90% | pest or weed control at 500 g/ha [26]: 95% | pest or weed control at 500 g/ha [27]: 95% | pest or weed control at 500 g/ha [28]: 60% | plant injury at 500 g/ha [29]: 80%

O=C1CCON1CC(O)CP(=O)(O)O (stereo not drawn) [Compound 2]
IC50 [1]: 110 nM | IC50 [2]: 1200 nM | MIC [3]: 1600 nM (≈ 0.36 µg/mL) | pest or weed control at 1000 g/ha [4]: 0% | pest or weed control at 1000 g/ha [5]: 0% | pest or weed control at 1000 g/ha [6]: 0% | pest or weed control at 1000 g/ha [7]: 0% | pest or weed control at 500 g/ha [8]: 0% | pest or weed control at 500 g/ha [9]: 0% | pest or weed control at 500 g/ha [10]: 0% | pest or weed control at 500 g/ha [11]: 0% | plant injury at 500 g/ha [12]: 0% | pest or weed control at 500 g/ha [13]: 0% | pest or weed control at 500 g/ha [14]: 0% | pest or weed control at 500 g/ha [15]: 0% | pest or weed control at 500 g/ha [16]: 0% | pest or weed control at 500 g/ha [17]: 0% | plant injury at 500 g/ha [18]: 0% | pest or weed control at 500 g/ha [19]: 0% | pest or weed control at 500 g/ha [20]: 0% | pest or weed control at 500 g/ha [21]: 0% | pest or weed control at 500 g/ha [22]: 30% | plant injury at 500 g/ha [23]: 0% | pest or weed control at 500 g/ha [24]: 0% | pest or weed control at 500 g/ha [25]: 0% | pest or weed control at 500 g/ha [26]: 90% | pest or weed control at 500 g/ha [27]: 30% | pest or weed control at 500 g/ha [28]: 50% | plant injury at 500 g/ha [29]: 0%

CC1CON(COCP(C)(=O)O)C1=O (stereo not drawn) [Compound 3]
IC50 [1]: 125 nM | IC50 [2]: 1700 nM | MIC [3]: 2200 nM (≈ 0.491 µg/mL) | pest or weed control at 4000 g/ha ([4]; 4000 Gramm/Hektar): 40% | pest or weed control at 4000 g/ha ([5]; 4000 Gramm/Hektar): 30% | pest or weed control at 4000 g/ha ([6]; 4000 Gramm/Hektar): 40% | pest or weed control at 4000 g/ha ([7]; 4000 Gramm/Hektar): 0% | pest or weed control at 2000 g/ha ([8]; 2000 Gramm/Hektar): 0% | pest or weed control at 2000 g/ha ([9]; 2000 Gramm/Hektar): 60% | pest or weed control at 2000 g/ha ([10]; 2000 Gramm/Hektar): 0% | pest or weed control at 2000 g/ha ([11]; 2000 Gramm/Hektar): 0% | plant injury at 2000 g/ha ([12]; 2000 Gramm/Hektar): 30% | pest or weed control at 2000 g/ha ([13]; 2000 Gramm/Hektar): 0% | pest or weed control at 2000 g/ha ([14]; 2000 Gramm/Hektar): 0% | pest or weed control at 2000 g/ha ([15]; 2000 Gramm/Hektar): 0% | pest or weed control at 2000 g/ha ([16]; 2000 Gramm/Hektar): 30% | pest or weed control at 2000 g/ha ([17]; 2000 Gramm/Hektar): 0% | plant injury at 2000 g/ha ([18]; 2000 Gramm/Hektar): 0% | pest or weed control at 2000 g/ha ([19]; 2000 Gramm/Hektar): 60% | pest or weed control at 2000 g/ha ([20]; 2000 Gramm/Hektar): 60% | pest or weed control at 2000 g/ha ([21]; 2000 Gramm/Hektar): 60% | pest or weed control at 2000 g/ha ([22]; 2000 Gramm/Hektar): 50% | plant injury at 2000 g/ha ([23]; 2000 Gramm/Hektar): 90% | pest or weed control at 2000 g/ha ([24]; 2000 Gramm/Hektar): 0% | pest or weed control at 2000 g/ha ([25]; 2000 Gramm/Hektar): 40% | pest or weed control at 2000 g/ha ([26]; 2000 Gramm/Hektar): 70% | pest or weed control at 2000 g/ha ([27]; 2000 Gramm/Hektar): 70% | pest or weed control at 2000 g/ha ([28]; 2000 Gramm/Hektar): 60% | plant injury at 2000 g/ha ([29]; 2000 Gramm/Hektar): 70%
